From patent publication US11279694B2, “Alvocidib prodrugs and their use as protein kinase inhibitors” (Sumitomo Dainippon Pharma Oncology, Inc., priority 2016, dated 2022)
Several values for one entry are separate records, joined by “and”; a condition that tells them apart may be missing. Equal entries are not always repeated.

Assays:
[1] = Pharmacokinetic testing of representative compounds in CD-1 mice, oral dosing; format: in vivo; settings: mean ± SD; for AUC0→∞, analyte: prodrug compound / AUCLast, analyte: prodrug compound / half-life / Tmax: dosed orally 10 mg/kg, analyte = dosed prodrug, nd = none detected; for half-life / Tmax: mouse, in vivo, po; for half-life: read-out: Half Life, analyte: prodrug compound (converted); for Tmax: read-out: Tmax, analyte: prodrug compound
Method: Representative compounds were tested for pharmacokinetic activity in CD-1 mice. Mice were dosed orally with 10 mg/kg of each representative compound as well as alvocidib.
The results in Table 3 show the tested compounds afforded high exposure of released alvocidib and no apparent exposure of the prodrug compounds. Additional results are shown in Tables 4 and 5, including use of alvocidib.HCl as a control: […]

[2] = Comparison of exposure of released alvocidib to parent prodrug exposure; format: in vivo; settings: expressed as a percentage of the released alvocidib exposure
Method: Representative prodrug compounds (i.e., Compounds 10, 21-28 and 29-31) were tested to determine the resultant exposure of released alvocidib as well exposure of the parent compound. The exposure of the parent prodrug is expressed as a percentage of the released alvocidib exposure (% F). The released alvocidib exposure (% F) for each prodrug was calculated as a percentage of the exposure of alvocidib, dosed orally at an equivalent dose.

[3] = labelled compound dosed orally 10 mg/kg, analyte = alvocidib (released from prodrug, or alvocidib.HCl control), hydrochloride, 10 mg/kg

CCNC(=O)O[C@@H]1CN(C)CC[C@@H]1c1c(O)cc(O)c2c(=O)cc(-c3ccccc3Cl)oc12 [Compound 12, (3S, 4R)-4-(2-(2-chlorophenyl)-5,7-dihydroxy-4-oxo-4H-chromen-8-yl)-1-methylpiperidin-3-yl ethylcarbamate]
AUC0→∞, analyte: prodrug compound [1]: 281.4 ± 28.3 ng · h/mL or ng · h/G
AUCLast, analyte: prodrug compound [1]: 262.2 ± 27.8 ng · h/mL or ng · h/G
half-life [1]: 2.1 ± 0.1 h
Tmax [1]: 0.42 ± 0.1 h

CCOC(=O)O[C@@H]1CN(C)CC[C@@H]1c1c(O)cc(O)c2c(=O)cc(-c3ccccc3Cl)oc12 [Compound 10, (3S, 4R)-4-(2-(2-chlorophenyl)-5,7-dihydroxy-4-oxo-4H-chromen-8-yl)-1-methylpiperidin-3-yl ethyl carbonate]
AUC0→∞, analyte: prodrug compound [1]: 646.8 ± 219.4 ng · h/mL or ng · h/G
AUCLast, analyte: prodrug compound [1]: 405.4 ± 215.6 ng · h/mL or ng · h/G
half-life [1]: 3.8 ± 0.6 h
Tmax [1]: 0.25 h
exposure of the parent prodrug [2]: 2%

C[C@H](N)C(=O)O[C@@H]1CN(C)CC[C@@H]1c1c(O)cc(O)c2c(=O)cc(-c3ccccc3Cl)oc12 [Compound 27, (3S, 4R)-4-(2-(2-chlorophenyl)-5,7-dihydroxy-4-oxo-4H-chromen-8-yl)-1-methylpiperidin-3-yl L-alaninate]
exposure of the parent prodrug [2]: low exposure

CN1CC[C@H](c2c(O)cc(O)c3c(=O)cc(-c4ccccc4Cl)oc23)[C@H](O)C1.Cl [Alvocidib•HCl, 2-(2-chlorophenyl)-5,7-dihydroxy-8-[(3S,4R)-3-hydroxy-1-methylpiperidin-4-yl]-4H-chromen-4-one hydrochloride, reference compound]
AUC0→∞, analyte: Alvocidib [1, 3]: 10,933.3 ± 4498.0 ng · h/mL or ng · h/G and 10,603.8 ± 1968.4 ng · h/mL or ng · h/G
AUCLast, analyte: Alvocidib [1, 3]: 7275.2 ± 2572.2 ng · h/mL or ng · h/G and 9952.7 ± 1769.5 ng · h/mL or ng · h/G

CN1CC[C@H](c2c(O)cc(O)c3c(=O)cc(-c4ccccc4Cl)oc23)[C@H](OC(=O)CN)C1 [Compound 28, (3S, 4R)-4-(2-(2-chlorophenyl)-5,7-dihydroxy-4-oxo-4H-chromen-8-yl)-1-methylpiperidin-3-yl glycinate]
exposure of the parent prodrug [2]: not detected

CCCCCCC(=O)O[C@@H]1CN(C)CC[C@@H]1c1c(O)cc(O)c2c(=O)cc(-c3ccccc3Cl)oc12 [Compound 31, (3S, 4R)-4-(2-(2-chlorophenyl)-5,7-dihydroxy-4-oxo-4H-chromen-8-yl)-1-methylpiperidin-3-yl heptanoate]
exposure of the parent prodrug [2]: not detected

CCCCC(=O)O[C@@H]1CN(C)CC[C@@H]1c1c(O)cc(O)c2c(=O)cc(-c3ccccc3Cl)oc12 [Compound 32, (3S, 4R)-4-(2-(2-chlorophenyl)-5,7-dihydroxy-4-oxo-4H-chromen-8-yl)-1-methylpiperidin-3-yl pentanoate]
exposure of the parent prodrug [2]: not detected

COC(=O)O[C@@H]1CN(C)CC[C@@H]1c1c(O)cc(O)c2c(=O)cc(-c3ccccc3Cl)oc12 [Compound 11, (3S, 4R)-4-(2-(2-chlorophenyl)-5,7-dihydroxy-4-oxo-4H-chromen-8-yl)-1-methylpiperidin-3-yl methyl carbonate]
AUC0→∞, analyte: prodrug compound [1]: 275.1 ± 24.1 ng · h/mL or ng · h/G
AUCLast, analyte: prodrug compound [1]: 238.3 ± 43.9 ng · h/mL or ng · h/G
half-life [1]: 4.2 ± 0.1 h
Tmax [1]: 0.25 h

CC(C)C(=O)O[C@@H]1CN(C)CC[C@@H]1c1c(O)cc(O)c2c(=O)cc(-c3ccccc3Cl)oc12 [Compound 22, (3S, 4R)-4-(2-(2-chlorophenyl)-5,7-dihydroxy-4-oxo-4H-chromen-8-yl)-1-methylpiperidin-3-yl isobutyrate]
exposure of the parent prodrug [2]: 3%

CNC(=O)O[C@@H]1CN(C)CC[C@@H]1c1c(O)cc(O)c2c(=O)cc(-c3ccccc3Cl)oc12 [Compound 13, (3S, 4R)-4-(2-(2-chlorophenyl)-5,7-dihydroxy-4-oxo-4H-chromen-8-yl)-1-methylpiperidin-3-yl methylcarbamate]
AUC0→∞, analyte: prodrug compound [1]: 620.2 ± 147.7 ng · h/mL or ng · h/G
AUCLast, analyte: prodrug compound [1]: 594.7 ± 143.7 ng · h/mL or ng · h/G
half-life [1]: 2 ± 0.8 h
Tmax [1]: 0.4 ± 0.1 h
